Patent publication US20180230166A1 (Merck Sharp & Dohme Corp., priority 2015, published 2018)

biological target: T1, endogenous CETP from serum (Homo sapiens, UniProt P11597); experiment: RTA assay in 95% human serum (95% RTA), CETP-catalyzed CE and TG transfer; type: biochemical; conditions: 95% human serum, endogenous CETP; read-out: RTA (95% HS)
T1 construct: yielding a concentration of approximately 15 nM endogenous CETP in the assay; from tissue; host or cells: human serum (95% of the assay volume)
T1 sequence (P11597 18-493): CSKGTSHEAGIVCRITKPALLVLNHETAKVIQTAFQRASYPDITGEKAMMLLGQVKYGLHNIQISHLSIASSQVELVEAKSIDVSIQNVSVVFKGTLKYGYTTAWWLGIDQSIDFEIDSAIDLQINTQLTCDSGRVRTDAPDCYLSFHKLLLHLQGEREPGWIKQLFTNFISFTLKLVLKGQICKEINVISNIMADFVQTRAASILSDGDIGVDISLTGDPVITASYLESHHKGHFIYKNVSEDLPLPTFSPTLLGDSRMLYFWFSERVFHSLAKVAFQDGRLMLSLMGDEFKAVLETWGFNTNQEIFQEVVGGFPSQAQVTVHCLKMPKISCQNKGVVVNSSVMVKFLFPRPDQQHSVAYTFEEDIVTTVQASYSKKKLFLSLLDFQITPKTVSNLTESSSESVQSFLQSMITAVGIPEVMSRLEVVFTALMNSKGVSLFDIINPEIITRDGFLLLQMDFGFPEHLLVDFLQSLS
Description: Reagents and sources are: [3H] cholesteryl oleate (GE #TRK.886), [3H] Triolein (Perkin-Elmer NET-431), Butylated hydroxyl toluene (Aldrich, #D4740-4), DOPC (Sigma, #P6354), Sodium Bromide (Fisher scientific #S255-500), PEG 8000 (Fisher, #BP233-1), and human HDL (Intracel Corp #RP-036).
Both assays measure the transfer of [3H] cholesteryl oleate or [3H] triolein from exogenous LDL to HDL.
Radiolabeled donor particles are generated by first combining 100 μl of 200 μM butylated hydroxyl toluene in CHCl3, 216 μL of 21.57 mM DOPC in EtOH, and either 500 μCi [3H]-triolein (Perkin Elmer #NET-431) or 500 μCi [3H]-cholesteryl oleate (GE #TRK886) in a glass tube. Reagents are mixed, dried under nitrogen, and then resuspended in 2 mL of 50 mM Tris, 27 μM EDTA at pH 7.4. After a brief vortex, the solution is sonicated until clear and mixed with 20 mL of fresh human serum. The mixture is incubated overnight at 37° C. The [3H] labeled LDL substrate is separated at 1.063 g/ml density by sequential ultracentrifugal flotation in NaBr according to the method of Havel, Eder, et al., 1955, and Chapman, Goldstein, et al., 1981. Once isolated the particles are dialyzed 3× in CETP buffer (50 mM Tris, pH 7.4, 100 mM NaCl, 1 mM EDTA). Human HDL is purchased from Intracel and used as the acceptor particles.
Transfer assays are performed in a 96-well v-bottom polypropylene plate. […] 1 μL of each test compound diluted in DMSO is added to 47 μL of assay cocktail per well and incubated at 37° C. for 1 hour. To initiate the transfer reaction, 2 μL radiolabeled LDL is added. After an additional 60 min of incubation at 37° C., the transfer action is terminated by precipitation of LDL with an equal volume of 20% W/V PEG 8000. The plates are centrifuged at 2000 rpm for 30 minutes at 4° C. A 40 μL aliquot of the HDL-containing supernatant is transferred to a Packard Optiplate™ with 200 μL of MicroScint™ 20. After mixing, plates are counted by liquid scintillation. Counts present in the supernatant for blanks (wells containing only HDL acceptor, CETP buffer and DMSO) are subtracted from those containing test compounds and used to correct for non-specific transfer.
For the transfer assay using endogenous CETP from serum (95% RTA), the same procedure is used except that human serum is added such that a final concentration of serum of 95% of the total assay volume is achieved, yielding a concentration of approximately 15 nM endogenous CETP in the assay. This is then combined with HDL and CETP buffer and the reaction proceeds as above and is terminated as described.
Comparison of the counts of samples with inhibitors to an uninhibited (DMSO only) positive control yield a percent inhibition. A plot of percent inhibition vs. log of inhibitor concentration, fit to a Sigmoidal 4 parameter equation is used to calculate IC50.
Starting materials are commercially available or are made using known procedures or as shown below. The examples may be synthesized using the general schemes provided below. The data reported for the examples below were obtained using the RTA assay in 95% human serum. […] When compounds of Formula I are mentioned herein, such compounds include compounds defined generically by Formula I and also the specific examples disclosed herein.

Row | Structure (SMILES) | IC50 [nM]
1 | COc1ccc(-c2ccc(C(=O)O)cc2C)cc1-c1ccc(C(F)(F)F)cc1[C@@H]1CC[C@H]2[C@@H](c3cc(C(F)(F)F)cc(C(F)(F)F)c3)CC(=O)N12 [Example 2, 2″-((3S,7R,7aS)-7-(3,5-bis(trifluoromethyl)phenyl)-5-oxohexahydro-1H-pyrrolizin-3-yl)-4′-methoxy-2-methyl-4″-(trifluoromethyl)-[1,1′:3′,1″-terphenyl]-4-carboxylic acid] | 1830

same assay, conditions: RTA assay in 95% human serum; read-out: IC50

Row | Structure (SMILES) | IC50 [nM]
2 | COc1ccc(-c2ccc(C(=O)O)cc2C)cc1-c1ccc(C(F)(F)F)cc1[C@@H]1CC[C@H]2[C@@H](c3cc(F)cc(C(F)(F)F)c3)CC(=O)N12 [Example 20] | 4730
3 | COc1cc(F)c(C(C)C)cc1-c1ccc(C(F)(F)F)cc1[C@@H]1CC[C@H]2[C@@H](c3cc(F)cc(C(F)(F)F)c3)SC(=O)N12 [Example 7, (1R,5S,7aS)-5-[4′-fluoro-2′-methoxy-5′-(1-methylethyl)-4-(trifluoromethyl)biphenyl-2-yl]-1-[3-fluoro-5-(trifluoromethyl)phenyl]tetrahydro-1H-pyrrolo[1,2-c][1,3]thiazol-3-one] | 2000
4 | COc1cc(F)c(C(C)C)cc1-c1ccc(C(F)(F)F)cc1[C@@H]1CC[C@H]2[C@@H](c3cc(F)cc(C(F)(F)F)c3)CC(=O)N12 [Example 18, (1R,5S,7aS)-5-[4′-fluoro-2′-methoxy-5′-(1-methylethyl)-4-(trifluoromethyl)biphenyl-2-yl]-1-[3-fluoro-5-(trifluoromethyl)phenyl]hexahydro-3H-pyrrolizin-3-one] | 2690
5 | COc1ncc(-c2c(C)cc(C(=O)O)cc2C)cc1-c1ccc(C(F)(F)F)cc1[C@@H]1CC[C@H]2[C@@H](c3ccnc(C(F)(F)F)c3)SC(=O)N12 [Example 8, 4-{6-methoxy-5-[2-{(1R,5S,7aS)-3-oxo-1-[2-(trifluoromethyl)pyridin-4-yl]tetrahydro-1H-pyrrolo[1,2-c][1,3]thiazol-5-yl}-4-(trifluoromethyl)phenyl]pyridin-3-yl}-3,5-dimethylbenzoic acid] | 143
6 | COc1ccc(-c2ccc(C(=O)O)cc2C)cc1-c1ccc(C(F)(F)F)cc1[C@@H]1CC[C@H]2[C@@H](c3cc(F)cc(C(F)(F)F)c3)SC(=O)N12 [Example 6, 2″-{(1R,5S,7aS)-1-[3-flluoro-5-(trifluoromethyl)phenyl]-3-oxotetrahydro-1H-pyrrolo[1,2-c][1,3]thiazol-5-yl}-4′-methoxy-2-methyl-4″-(trifluoromethyl)-1,1′:3′,1″-terphenyl-4-carboxylic acid] | 926
7 | COc1ncc(-c2c(C)cc(C(=O)O)cc2C)cc1-c1ccc(C(F)(F)F)cc1[C@@H]1CC[C@H]2[C@@H](c3ccnc(C(F)(F)F)c3)CC(=O)N12 [Example 21, 4-{6-methoxy-5-[2-{(3S,7R,7aS)-5-oxo-7-[2-(trifluoromethyl)pyridin-4-yl]hexahydro-1H-pyrrolizin-3-yl}-4-(trifluoromethyl)phenyl]pyridin-3-yl}-3,5-dimethylbenzoic acid] | 2900
8 | COc1ncc(-c2ccc(C(=O)O)cc2C)cc1-c1ccc(C(F)(F)F)cc1[C@@H]1CC[C@H]2[C@@H](c3cc(C(F)(F)F)cc(C(F)(F)F)c3)CC(=O)N12 [Example 16, 4-{5-[2-{(3S,7R,7aS)-7-[3,5-bis(trifluoromethyl)phenyl]-5-oxohexahydro-1H-pyrrolizin-3-yl}-4-(trifluoromethyl)phenyl]-6-methoxypyridin-3-yl}-3-methylbenzoic acid] | 2940
9 | COc1ncc(-c2ccc(C(=O)O)cc2C)cc1-c1ccc(C(F)(F)F)cc1[C@@H]1CC[C@H]2[C@@H](c3cc(F)cc(C(F)(F)F)c3)SC(=O)N12 [Example 5, 4-{5-[2-{(1R,5S,7aS)-1-[3-fluoro-5-(trifluoromethyl)phenyl]-3-oxotetrahydro-1H-pyrrolo[1,2-c][1,3]thiazol-5-yl}-4-(trifluoromethyl)phenyl]-6-methoxypyridin-3-yl}-3-methylbenzoic acid] | 285
10 | COc1cc(F)c(C(C)C)cc1-c1ccc(C(F)(F)F)cc1[C@@H]1CC[C@H]2[C@@H](c3ccnc(C(F)(F)F)c3)SC(=O)N12 [Example 11, (1R,5S,7aS)-5-[4′-fluoro-2′-methoxy-5′-(1-methylethyl)-4-(trifluoromethyl)biphenyl-2-yl]-1-[2-(trifluoromethyl)pyridin-4-yl]tetrahydro-1H-pyrrolo[1,2-c][1,3]thiazol-3-one] | 2520
11 | COc1ncc(-c2ccc(C(=O)O)cc2C)cc1-c1ccc(C(F)(F)F)cc1[C@@H]1CC[C@H]2[C@@H](c3ccnc(C(F)(F)F)c3)SC(=O)N12 [Example 10, 4-{6-methoxy-5-[2-{(1R,5S,7aS)-3-oxo-1-[2-(trifluoromethyl)pyridin-4-yl]tetrahydro-1H-pyrrolo[1,2-c][1,3]thiazol-5-yl}-4-(trifluoromethyl)phenyl]pyridin-3-yl}-3-methylbenzoic acid] | 3940
12 | COc1ncc(-c2ccc(C(=O)O)cc2C)cc1-c1ccc(C(F)(F)F)cc1[C@@H]1CC[C@H]2[C@@H](c3cc(F)cc(C(F)(F)F)c3)CC(=O)N12 [Example 19, 4-{5-[2-{(3S,7R,7aS)-7-[3-fluoro-5-(trifluoromethyl)phenyl]-5-oxohexahydro-1H-pyrrolizin-3-yl}-4-(trifluoromethyl)phenyl]-6-methoxypyridin-3-yl}-3-methylbenzoic acid] | 2880
13 | COc1ncc(-c2c(C)cc(C(=O)O)cc2C)cc1-c1ccc(C(F)(F)F)cc1[C@@H]1CC[C@H]2[C@@H](c3cc(C(F)(F)F)cc(C(F)(F)F)c3)CC(=O)N12 [Example 14, 4-{5-[2-{(3S,7R,7aS)-7-[3,5-bis(trifluoromethyl)phenyl]-5-oxohexahydro-1H-pyrrolizin-3-yl}-4-(trifluoromethyl)phenyl]-6-methoxypyridin-3-yl}-3,5-dimethylbenzoic acid] | 321
14 | COc1ncc(-c2c(C)cc(C(=O)O)cc2C)cc1-c1ccc(C(F)(F)F)cc1[C@@H]1CC[C@H]2[C@@H](c3cc(C(F)(F)F)cc(C(F)(F)F)c3)SC(=O)N12 [Example 3, 4-{5-[2-{(1R,5S,7aS)-1-[3,5-bis(trifluoromethyl)phenyl]-3-oxotetrahydro-1H-pyrrolo[1,2-c][1,3]thiazol-5-yl}-4-(trifluoromethyl)phenyl]-6-methoxypyridin-3-yl}-3,5-dimethylbenzoic acid] | 164
15 | COc1ccc([C@H]2CC[C@H](C(=O)O)CC2)cc1-c1ccc(C(F)(F)F)cc1[C@@H]1CC[C@H]2[C@@H](c3cc(F)cc(C(F)(F)F)c3)SC(=O)N12 [Example 12, trans-4-[2′-{(1R,5S,7aS)-1-[3-fluoro-5-(trifluoromethyl)phenyl]-3-oxotetrahydro-1H-pyrrolo[1,2-c][1,3]thiazol-5-yl}-6-methoxy-4′-(trifluoromethyl)biphenyl-3-yl]cyclohexanecarboxylic acid] | 1500
16 | COc1ccc(-c2ccc(C(=O)O)cc2C)cc1-c1ccc(C(F)(F)F)cc1[C@@H]1CC[C@H]2[C@@H](c3ccnc(C(F)(F)F)c3)SC(=O)N12 [Example 9, 4′-methoxy-2-methyl-2″-{(1R,5S,7aS)-3-oxo-1-[2-(trifluoromethyl)pyridin-4-yl]tetrahydro-1H-pyrrolo[1,2-c][1,3]thiazol-5-yl}-4″-(trifluoromethyl)-1,1′:3′,1″-terphenyl-4-carboxylic acid] | 1990
